Counter-ions that a name gives are not always drawn.
Test system: HMOX1
Assay: HMOX1 Protein Assay (immunostaining of HO-1 in NHLF cells, GE InCell 1000)
Type: cell-based
Conditions: Homo sapiens, fold change above DMSO treated cells, 16 h; for fold induction at 5 µM: 5 μM compound; for fold induction at 3 µM: 3 μM compound (asterisk)
In short: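 NHLF cells seeded overnight in FGM-2, then exposed to compound or DMSO vehicle for 16 h, fixed, and immunostained for HO-1 with Hoechst nuclear counterstain; imaged on InCell 1000. Values are fold change over DMSO-treated cells, generally at 5 μM (0.8% DMSO), with asterisked entries at 3 μM.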

For `Cn1c(Nc2nc3ccc(OC(F)(F)F)cc3s2)nc2cc(C(=O)NCCC3CCCCO3)ccc21` (stereo not drawn) [Example 263, 1-Methyl-2-(6-trifluoromethoxy-benzothiazol-2-ylamino)-1H-benzoimidazole-5-carboxylic acid [2-(tetrahydro-pyran-2-yl)-ethyl]-amide], the fold induction at 5 µM was 19.9.

`Cn1c(Nc2nc3ccc(OC(F)(F)F)cc3s2)nc2cc(C(=O)NCCC3CCOCC3)ccc21` [Example 264, 1-Methyl-2-(6-trifluoromethoxy-benzothiazol-2-ylamino)-1H-benzoimidazole-5-carboxylic acid [2-(tetrahydro-pyran-4-yl)-ethyl]-amide] was tested, and the fold induction at 5 µM was 22.9.

Work on `Cn1c(Nc2nc3ccc(OC(F)(F)F)cc3s2)nc2cc(C(=O)NCCOCCC#N)ccc21` [Example 265, 1-Methyl-2-(6-trifluoromethoxy-benzothiazol-2-ylamino)-1H-benzoimidazole-5-carboxylic acid [2-(2-cyano-ethoxy)-ethyl]-amide] yielded a fold induction at 5 µM of 55.

For `Cn1c(Nc2nc3ccc(Cl)cc3s2)nc2cc(C(=O)NCCOCCC#N)ccc21` [Example 266, 2-(6-Chloro-benzothiazol-2-ylamino)-1-methyl-1H-benzoimidazole-5-carboxylic acid [2-(2-cyano-ethoxy)-ethyl]-amide], the fold induction at 5 µM was 57.

With `Cn1c(Nc2nc3ccc(OC(F)(F)F)cc3s2)nc2cc(C(=O)NCCOCC(N)=O)ccc21` [Example 267, 1-Methyl-2-(6-trifluoromethoxy-benzothiazol-2-ylamino)-1H-benzoimidazole-5-carboxylic acid (2-carbamoylmethoxy-ethyl)-amide] the fold induction at 5 µM was 58.8.

`Cn1c(Nc2nc3ccc(OC(F)(F)F)cc3s2)nc2cc(C(=O)NCCOCCN)ccc21` [Example 268, 1-Methyl-2-(6-trifluoromethoxy-benzothiazol-2-ylamino)-1H-benzoimidazole-5-carboxylic acid [2-(2-amino-ethoxy)-ethyl]-amide] was tested, and the fold induction at 5 µM was 28.4.

Work on `Cn1c(Nc2nc3ccc(Cl)cc3s2)nc2cc(C(=O)NCCOCCN)ccc21` [Example 269, 2-(6-Chloro-benzothiazol-2-ylamino)-1-methyl-1H-benzoimidazole-5-carboxylic acid [2-(2-amino-ethoxy)-ethyl]-amide] yielded a fold induction at 3 µM of 19.9.

Compound `Cn1c(Nc2nc3c(Cl)cccc3s2)nc2cc(C(=O)NCCOCCN)ccc21` [Example 270, 2-(4-Chloro-benzothiazol-2-ylamino)-1-methyl-1H benzoimidazole-5-carboxylic acid [2-(2-amino-ethoxy)-ethyl]-amide] has a fold induction at 5 µM of 14.6.

With `CNCCOCCNC(=O)c1ccc2c(c1)nc(Nc1nc3ccc(OC(F)(F)F)cc3s1)n2C` [Example 271, 1-Methyl-2-(6-trifluoromethoxy-benzothiazol-2-ylamino)-1H-benzoimidazole-5-carboxylic acid [2-(2-methylamino-ethoxy)-ethyl]-amide hydrochloride] the fold induction at 5 µM was 69.9.

Compound `CNCCOCCNC(=O)c1ccc2c(c1)nc(Nc1nc3ccc(Cl)cc3s1)n2C` [Example 272, 2-(6-Chloro-benzothiazol-2-ylamino)-1-methyl-1H-benzoimidazole-5-carboxylic acid [2-(2-methylamino-ethoxy)-ethyl]-amide hydrochloride] has a fold induction at 5 µM of 86.5.

`CN(C)CCOCCNC(=O)c1ccc2c(c1)nc(Nc1nc3ccc(OC(F)(F)F)cc3s1)n2C` [Example 273, 1-Methyl-2-(6-trifluoromethoxy-benzothiazol-2-ylamino)-1H-benzoimidazole-5-carboxylic acid [2-(2-dimethylamino-ethoxy)-ethyl]-amide] was tested, and the fold induction at 5 µM was 25.3.

In the case of `CN(C)CCOCCNC(=O)c1ccc2c(c1)nc(Nc1nc3ccc(Cl)cc3s1)n2C` [Example 274, 2-(6-Chloro-benzothiazol-2-ylamino)-1-methyl-1H-benzoimidazole-5-carboxylic acid [2-(2-dimethylamino-ethoxy)-ethyl]-amide], the fold induction at 5 µM is reported as 65.9.

`CC(=O)NCCOCCNC(=O)c1ccc2c(c1)nc(Nc1nc3ccc(OC(F)(F)F)cc3s1)n2C` [Example 275, 1-Methyl-2-(6-trifluoromethoxy-benzothiazol-2-ylamino)-1H-benzoimidazole-5-carboxylic acid [2-(2-acetylamino-ethoxy)-ethyl]-amide] was tested, and the fold induction at 5 µM was 77.4.

Work on `Cn1c(Nc2nc3ccc(OC(F)(F)F)cc3s2)nc2cc(C(=O)NCCOCCNS(C)(=O)=O)ccc21` [Example 276, 1-Methyl-2-(6-trifluoromethoxy-benzothiazol-2-ylamino)-1H-benzoimidazole-5-carboxylic acid [2-(2-methanesulfonylamino-ethoxy)-ethyl]-amide] yielded a fold induction at 5 µM of 61.2.

In the case of `CCS(=O)(=O)CCNC(=O)c1ccc2c(c1)nc(Nc1nc3ccc(Cl)cc3s1)n2C` [Example 277, 2-(6-Chloro-benzothiazol-2-ylamino)-1-methyl-1H-benzoimidazole-5-carboxylic acid (2-ethanesulfonyl-ethyl)-amide], the fold induction at 3 µM is reported as 38.3.

`Cn1c(Nc2nc3ccc(Cl)cc3s2)nc2cc(C(=O)NCCS(=O)(=O)CCO)ccc21` [Example 278, 2-(6-Chloro-benzothiazol-2-ylamino)-1-methyl-1H-benzoimidazole-5-carboxylic acid [2-(2-hydroxy-ethanesulfonyl)-ethyl]-amide] showed a fold induction at 3 µM of 36.5.

Work on `Cn1c(Nc2nc3ccc(Cl)cc3s2)nc2cc(C(=O)NCCNCCF)ccc21` [Example 279, 2-(6-Chloro-benzothiazol-2-ylamino)-1-methyl-1H-benzoimidazole-5-carboxylic acid [2-(2-fluoro-ethylamino)-ethyl]-amide hydrochloride] yielded a fold induction at 5 µM of 89.2.

In the case of `Cn1c(Nc2nc3ccc(OC(F)(F)F)cc3s2)nc2cc(C(=O)NC[C@H](O)CO)ccc21` [Example 280, 1-Methyl-2-(6-trifluoromethoxy-benzothiazol-2-ylamino)-1H-benzoimidazole-5-carboxylic acid ((S)-2,3-dihydroxy-propyl)-amide], the fold induction at 5 µM is reported as 38.8.

In the case of `Cn1c(Nc2nc3ccc(OC(F)(F)F)cc3s2)nc2cc(C(=O)NC[C@@H](O)CO)ccc21` [Example 281, 1-Methyl-2-(6-trifluoromethoxy-benzothiazol-2-ylamino)-1H-benzoimidazole-5-carboxylic acid ((R)-2,3-dihydroxy-propyl)-amide], the fold induction at 5 µM is reported as 35.6.

`Cn1c(Nc2nc3ccc(OC(F)(F)F)cc3s2)nc2cc(C(=O)N[C@@H]3C[C@H](CO)[C@@H](O)[C@H]3O)ccc21` [Example 282, 1-Methyl-2-(6-trifluoromethoxy-benzothiazol-2-ylamino)-1H-benzoimidazole-5-carboxylic acid ((1R,2S,3R,4R)-2,3-dihydroxy-4-hydroxymethyl-cyclopentyl)-amide] gave a fold induction at 5 µM of 51.7.

`Cn1c(Nc2nc3ccc(OC(F)(F)F)cc3s2)nc2cc(C(=O)N[C@@H]3[C@@H](O)[C@H](O)[C@@H](CO)O[C@@H]3O)ccc21` [Example 283, 1-Methyl-2-(6-trifluoromethoxy-benzothiazol-2-ylamino)-1H-benzoimidazole-5-carboxylic acid ((2S,3R,4R,5S,6R)-2,4,5-trihydroxy-6-hydroxymethyl-tetrahydro-pyran-3-yl)-amide] showed a fold induction at 5 µM of 30.2.

Work on `Cn1c(Nc2nc3ccc(OC(F)(F)F)cc3s2)nc2cc(C(=O)N(CCO)CCO)ccc21` [Example 284, 1-Methyl-2-(6-trifluoromethoxy-benzothiazol-2-ylamino)-1H-benzoimidazole-5-carboxylic acid bis-(2-hydroxy-ethyl)-amide] yielded a fold induction at 5 µM of 47.4.

`Cn1c(Nc2nc3ccc(OC(F)(F)F)cc3s2)nc2ccc(C(=O)NCCOCCO)cc21` [Example 286, 3-Methyl-2-(6-trifluoromethoxy-benzothiazol-2-ylamino)-3H-benzoimidazole-5-carboxylic acid [2-(2-hydroxy-ethoxy)-ethyl]-amide] gave a fold induction at 5 µM of 61.1.

`Cn1c(Nc2nc3ccc(Cl)cc3s2)nc2ccc(C(=O)NCCOCCO)cc21` [Example 288, 2-(6-Chloro-benzothiazol-2-ylamino)-3-methyl-3H-benzoimidazole-5-carboxylic acid [2-(2-hydroxy-ethoxy)-ethyl]-amide] showed a fold induction at 5 µM of 47.

Work on `Cn1c(Nc2nc3ccc(OC(F)(F)F)cc3s2)nc2cc(C(=O)NC3CCNC3)ccc21` (stereo not drawn) [Example 289, 1-Methyl-2-(6-trifluoromethoxy-benzothiazol-2-ylamino)-1H-benzoimidazole-5-carboxylic acid pyrrolidin-3-ylamide hydrochloride] yielded a fold induction at 5 µM of 44.6.

In the case of `Cn1c(Nc2nc3ccc(Cl)cc3s2)nc2cc(C(=O)N[C@@H]3CCNC3)ccc21` [Example 290, 2-(6-Chloro-benzothiazol-2-ylamino)-1-methyl-1H-benzoimidazole-5-carboxylic acid (R)-pyrrolidin-3-ylamide hydrochloride], the fold induction at 5 µM is reported as 22.5.

`Cn1c(Nc2nc3ccc(Cl)cc3s2)nc2cc(C(=O)N[C@H]3CCNC3)ccc21` [Example 291, 2-(6-Chloro-benzothiazol-2-ylamino)-1-methyl-1H-benzoimidazole-5-carboxylic acid (S)-pyrrolidin-3-ylamide hydrochloride] was tested, and the fold induction at 5 µM was 17.

`Cn1c(Nc2nc3ccc(Cl)cc3s2)nc2cc(C(=O)N[C@@H]3CCN(CCO)C3)ccc21` [Example 292, 2-(6-Chloro-benzothiazol-2-ylamino)-1-methyl-1H-benzoimidazole-5-carboxylic acid [(R)-1-(2-hydroxy-ethyl)-pyrrolidin-3-yl]-amide] showed a fold induction at 5 µM of 39.

In the case of `Cn1c(Nc2nc3ccc(Cl)cc3s2)nc2cc(C(=O)N[C@H]3CCN(CCO)C3)ccc21` [Example 293, 2-(6-Chloro-benzothiazol-2-ylamino)-1-methyl-1H-benzoimidazole-5-carboxylic acid [(S)-1-(2-hydroxy-ethyl)-pyrrolidin-3-yl]amide], the fold induction at 5 µM is reported as 29.4.

For `C[C@@H](O)CN1CCC(NC(=O)c2ccc3c(c2)nc(Nc2nc4ccc(OC(F)(F)F)cc4s2)n3C)C1` (stereo partly drawn) [Example 294, 1-Methyl-2-(6-trifluoromethoxy-benzothiazol-2-ylamino)-1H-benzoimidazole-5-carboxylic acid [1-((R)-2-hydroxy-propyl)-pyrrolidin-3-yl]-amide], the fold induction at 5 µM was 29.4.
